In PubChem BioAssay (NCI) one finds GI50 and TGI data, which are given here for eight compounds.

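A five-concentration, 48-hour dose response in 96-well plates underlies each endpoint, interpolated linearly between surrounding concentrations. At the GI50, growth is halved. TGI is the concentration that stops growth completely.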

Common to all, as to experiment: NCI-60 cell line screen, 48 h
Assay [1] concerns HOP-62 NSCLC.
Assay [2] deals with M14 melanoma.
The test system of assay [3] is DU-145 prostate.
For assay [4], the system named is SF-295 CNS.
Assay [5] has as its system SK-OV-3 ovarian.
Assay [6] has as its system ACHN renal.
The subject of assay [7] is HS 578T breast.
Assay [8] concerns MDA-MB-231 breast.
Assay [9] relates to HCC-2998 colon.
The subject of assay [10] is MDA-MB-435.

Turning to `C=C(Cn1c2ccccc2c(=O)c2ccccc21)c1ccc(C(=O)Nc2ccccc2N)cc1`, the GI50 was above 27.3 µM in assay [1]; 12.2 µM in assay [2]; above 100 µM in [3]; above 81.5 µM in assay [4]; 5.99 µM in [5]; above 100 µM in [6]. In addition, the GI50 in assay [7] is above 100 µM; in assay [8], 3.72 µM; in assay [9], 3.67 µM. Further, the TGI in assay [1], in assay [2], in [3], in assay [4], in [5] and in assay [6] was above 100 µM throughout. Further, the TGI in assay [7] was above 100 µM; in assay [8], 56 µM; in assay [9], above 61.2 µM.
Regarding `COC(=O)[C@]1(C)CCC[C@]2(C)[C@@H]1CCC13C[C@@H](C=CO1)[C@@H](C)CC32O` (stereo partly drawn), the GI50 in [10] was 23.9 µM; in assay [1], above 100 µM; in assay [2], 50.3 µM; in assay [3], 19.9 µM; in [4] it was 27.5 µM; in [5] it was above 100 µM. The results for the GI50 in assay [6], in assay [7] and in assay [8] were above 100 µM, 20.7 µM and 65.9 µM, respectively. Also, the TGI in assay [10] is above 100 µM; in [1] it was above 100 µM; in assay [2] it was above 100 µM; in assay [3] it was 43.5 µM; in [4], 88.7 µM; in [5], above 100 µM. In addition, the TGI was above 100 µM in assay [6], 76.5 µM in [7] and above 100 µM in [8].
On to `Nc1ncc(C2[C@H](CNC(=O)c3cc(Br)c[nH]3)C(CNC(=O)c3cc(Br)c[nH]3)[C@@H]2c2cnc(N)[nH]2)[nH]1` (stereo partly drawn), for which the GI50 in [10] is above 50 µM; in [1] it was above 50 µM; in assay [2] it was above 50 µM; in assay [3], 0.329 µM; in [4] it was above 50 µM; in assay [6] it was above 50 µM. For the same compound, the GI50 was 40.1 µM in assay [7], 8.01 µM in assay [8] and above 50 µM in assay [9]. In addition, the TGI in assay [10], in [1], in assay [2], in assay [3], in assay [4] and in assay [6] was above 50 µM throughout. Also, the TGI in assay [7], in assay [8] and in [9] was above 50 µM in each case.
In the case of `O=C(OC[C@@H]1CO1)c1cccc2c(=O)c3ccccc3[nH]c12`, the GI50 in assay [10] is 0.281 µM; in assay [1] it was 0.357 µM; in [2], 0.344 µM; in assay [3], 0.335 µM; in [4] it was 0.432 µM; in assay [6], 0.107 µM. For the same compound, the GI50 was 0.499 µM in assay [7], 0.393 µM in assay [8] and 0.312 µM in [9]. Moreover, the TGI in [10] worked out at 1.24 µM; in assay [1] it was 3.45 µM; in assay [2] it was 1.65 µM; in [3], 1.29 µM; in assay [4], 2.5 µM; in [6], 0.305 µM. For the same compound, the values for the TGI in [7], in assay [8] and in assay [9] were 3.78 µM, 2.29 µM and 1.25 µM, respectively.
Turning to `OCC#Cc1ccccc1C#Cc1ccc(C#Cc2ccccc2)cc1`, the GI50 is 21 µM in [10]; 17.5 µM in [2]; 16.7 µM in [3]; 37.7 µM in [4]; 18.9 µM in [6]; 31 µM in assay [7]. Also, the GI50 in [8] is 20 µM. The TGI in [10] is 49.5 µM; in [2], 43.9 µM; in assay [3], 34.4 µM; in assay [4] it was above 100 µM; in assay [6], 37 µM; in [7], above 100 µM. For the same compound, the TGI in assay [8] is 37.5 µM.
For `COc1cc(/C=C2\C(=O)N(C)c3ccccc32)cc(OC)c1OC`, the GI50 in assay [10] is 5.02 µM; in [1], 20.2 µM; in assay [2] it was 16.8 µM; in assay [4], 22.1 µM; in assay [5] it was 20.9 µM; in assay [6], 14.7 µM. In addition, the GI50 in assay [7] is 27.4 µM; in assay [8], 14.2 µM; in [9] it was 19 µM. Also, the TGI was 45.4 µM in assay [10]; 54 µM in assay [1]; 46.9 µM in assay [2]; above 100 µM in assay [4]; above 100 µM in assay [5]; 62.8 µM in assay [6]. Also, the TGI in [7] is above 100 µM; in assay [8], 68.4 µM; in assay [9], 44.4 µM.
As to `N/C(=N\C(N)=N\c1nc2ccccc2s1)c1cnccn1`, the GI50 in assay [1] was 2.92 µM; in [2] it was 3.21 µM; in assay [3], 4.34 µM; in assay [4], 3.19 µM; in assay [5] it was 1.84 µM; in assay [6] it was 2.51 µM. The GI50 in assay [7] was 4.7 µM; in assay [8], 3.91 µM. Further, the TGI in [1] is 16.1 µM; in [2], above 100 µM; in assay [3], above 100 µM; in [4], 22.6 µM; in [5], 3.83 µM; in [6], 6.6 µM. In addition, the TGI in [7] and in assay [8] was above 100 µM each time.
`COc1cc(N(CCC#N)CCC#N)ccc1/C(N=Nc1ccc(C(=O)O)cc1)=N/NC(=O)c1cc(Br)ccc1O`: the GI50 in [10] is above 150 µg/mL; in assay [2], 72 µg/mL; in [3], above 150 µg/mL; in assay [4] it was 96.4 µg/mL; in assay [5] it was 86.2 µg/mL; in assay [6] it was 108 µg/mL. In addition, the GI50 in assay [7] was 77.3 µg/mL; in assay [8], 72.7 µg/mL; in assay [9] it was 38.3 µg/mL. The TGI in assay [10], in [2], in assay [3], in assay [4], in assay [5] and in assay [6] was above 150 µg/mL throughout. Moreover, the TGI in assay [7] is above 150 µg/mL; in [8], above 150 µg/mL; in assay [9], 81.7 µg/mL.
